Assay [1] relates to 8B10 scFv Rip-3 (anti-MPTS). In words: MPTS fluorescence quenching, protein titration. The class given is binding.
The test system of assay [2] is 4D5Flu Rip-3 (anti-fluorescein scFv). The assay is described as follows: dose-dependent rescue of fluorescein quenching. Format: binding, synthetic construct.

In assay [1], `COc1cc(S(=O)(=O)O)c2ccc3c(S(=O)(=O)O)cc(S(=O)(=O)O)c4ccc1c2c43` [MPTS, 8-methoxypyrene-1,3,6-trisulfonic acid] had an EC50 of 1 µM.

Compound `c1ccc(COc2ccc3cn[nH]c3c2)cc1` [Stitch-3, 6-(benzyloxy)indazole] registered an EC50 in assay [2] of 16 µM. In other words, the double-digit micromolar range.

As usually defined, the EC50 is the concentration at which the effect is half-maximal. A low value points to an effect from little substance.
